Measurements published in ChEMBL document CHEMBL5291721, “A preclinical secondary pharmacology resource illuminates target-adverse drug reaction associations of marketed drugs” (Nat Commun, 2023).

Experiments:
Adenosine receptor A3 = molecular target: T1, Adenosine receptor A3 (Homo sapiens, UniProt P0DMS8)
T1 sequence (P0DMS8 whole entry): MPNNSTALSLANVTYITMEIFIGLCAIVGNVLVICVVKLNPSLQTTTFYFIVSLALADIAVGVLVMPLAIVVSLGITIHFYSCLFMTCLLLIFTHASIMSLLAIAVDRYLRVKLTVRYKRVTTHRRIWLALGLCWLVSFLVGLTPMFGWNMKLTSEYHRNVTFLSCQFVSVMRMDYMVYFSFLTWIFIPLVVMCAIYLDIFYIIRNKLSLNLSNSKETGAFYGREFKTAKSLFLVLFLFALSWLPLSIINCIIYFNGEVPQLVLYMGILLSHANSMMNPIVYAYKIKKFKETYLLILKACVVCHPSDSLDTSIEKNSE

Motilin receptor = Motilin receptor (Homo sapiens, UniProt O43193)
[1] = molecular target: T2, Equilibrative nucleoside transporter 1 (Homo sapiens, UniProt Q99808)
T2 sequence (Q99808 whole entry): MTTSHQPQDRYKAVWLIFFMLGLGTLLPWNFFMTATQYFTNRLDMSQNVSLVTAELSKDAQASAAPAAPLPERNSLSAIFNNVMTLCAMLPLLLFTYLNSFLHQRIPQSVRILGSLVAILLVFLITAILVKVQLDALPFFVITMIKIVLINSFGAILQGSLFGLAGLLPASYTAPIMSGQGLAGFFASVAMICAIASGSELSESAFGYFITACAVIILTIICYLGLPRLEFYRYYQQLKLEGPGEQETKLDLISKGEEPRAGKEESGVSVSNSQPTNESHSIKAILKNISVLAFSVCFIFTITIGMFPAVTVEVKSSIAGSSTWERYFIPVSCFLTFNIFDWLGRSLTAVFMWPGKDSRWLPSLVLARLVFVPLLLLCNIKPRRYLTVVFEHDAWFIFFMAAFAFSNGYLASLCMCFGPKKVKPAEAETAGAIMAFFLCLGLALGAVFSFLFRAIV

[2] = molecular target: T3, Type-1 angiotensin II receptor (Homo sapiens, UniProt P30556)
T3 sequence (P30556 whole entry): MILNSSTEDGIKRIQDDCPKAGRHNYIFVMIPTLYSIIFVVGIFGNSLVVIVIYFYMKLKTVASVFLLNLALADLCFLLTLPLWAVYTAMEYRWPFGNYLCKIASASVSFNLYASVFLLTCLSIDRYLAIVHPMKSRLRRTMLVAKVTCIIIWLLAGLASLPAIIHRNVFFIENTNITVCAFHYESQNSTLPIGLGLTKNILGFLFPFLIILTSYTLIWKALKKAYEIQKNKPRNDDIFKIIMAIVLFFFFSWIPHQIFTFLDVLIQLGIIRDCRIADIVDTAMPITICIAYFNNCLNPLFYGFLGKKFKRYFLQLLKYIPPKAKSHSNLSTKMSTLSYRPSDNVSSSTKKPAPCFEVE

Adenosine receptor A1 = molecular target: T4, Adenosine receptor A1 (Homo sapiens, UniProt P30542)
T4 sequence (P30542 whole entry): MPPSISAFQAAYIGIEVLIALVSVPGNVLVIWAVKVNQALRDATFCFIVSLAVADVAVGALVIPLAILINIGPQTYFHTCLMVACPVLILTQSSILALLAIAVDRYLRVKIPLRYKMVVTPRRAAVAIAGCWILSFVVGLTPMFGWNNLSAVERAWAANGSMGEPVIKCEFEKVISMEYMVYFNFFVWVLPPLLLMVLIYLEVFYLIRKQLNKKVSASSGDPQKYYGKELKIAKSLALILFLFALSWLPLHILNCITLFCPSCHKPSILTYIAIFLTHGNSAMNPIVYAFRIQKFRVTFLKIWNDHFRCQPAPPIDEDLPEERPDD

[3] = molecular target: Neuronal acetylcholine receptor subunit alpha-4 (Homo sapiens, UniProt P43681)
[4] = molecular target: T5, 5-hydroxytryptamine receptor 3A (Homo sapiens, UniProt P46098); format: functional
T5 sequence (P46098 whole entry): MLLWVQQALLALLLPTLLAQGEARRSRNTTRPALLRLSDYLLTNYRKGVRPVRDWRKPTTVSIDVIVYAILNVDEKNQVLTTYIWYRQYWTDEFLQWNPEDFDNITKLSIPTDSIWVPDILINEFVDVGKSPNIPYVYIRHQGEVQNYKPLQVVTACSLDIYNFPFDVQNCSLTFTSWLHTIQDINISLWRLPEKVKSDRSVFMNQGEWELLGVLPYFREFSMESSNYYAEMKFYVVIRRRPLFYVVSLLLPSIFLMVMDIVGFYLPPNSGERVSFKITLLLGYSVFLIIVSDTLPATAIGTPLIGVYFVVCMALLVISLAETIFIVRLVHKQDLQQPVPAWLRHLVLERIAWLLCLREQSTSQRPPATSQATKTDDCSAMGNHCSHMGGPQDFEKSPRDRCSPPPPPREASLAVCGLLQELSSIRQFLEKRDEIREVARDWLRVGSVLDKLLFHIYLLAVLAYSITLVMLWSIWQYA

[5] = molecular target: Delta-type opioid receptor (Homo sapiens, UniProt P41143)
[6] = molecular target: Voltage-gated inwardly rectifying potassium channel KCNH2 (Homo sapiens, UniProt Q12809); format: functional; conditions: read-out: AC50
[7] = molecular target: 5-hydroxytryptamine receptor 2B (Homo sapiens, UniProt P41595); format: functional, cell-based
[8] = molecular target: T6, Muscarinic acetylcholine receptor M2 (Homo sapiens, UniProt P08172); format: functional, cell-based
T6 sequence (P08172 whole entry): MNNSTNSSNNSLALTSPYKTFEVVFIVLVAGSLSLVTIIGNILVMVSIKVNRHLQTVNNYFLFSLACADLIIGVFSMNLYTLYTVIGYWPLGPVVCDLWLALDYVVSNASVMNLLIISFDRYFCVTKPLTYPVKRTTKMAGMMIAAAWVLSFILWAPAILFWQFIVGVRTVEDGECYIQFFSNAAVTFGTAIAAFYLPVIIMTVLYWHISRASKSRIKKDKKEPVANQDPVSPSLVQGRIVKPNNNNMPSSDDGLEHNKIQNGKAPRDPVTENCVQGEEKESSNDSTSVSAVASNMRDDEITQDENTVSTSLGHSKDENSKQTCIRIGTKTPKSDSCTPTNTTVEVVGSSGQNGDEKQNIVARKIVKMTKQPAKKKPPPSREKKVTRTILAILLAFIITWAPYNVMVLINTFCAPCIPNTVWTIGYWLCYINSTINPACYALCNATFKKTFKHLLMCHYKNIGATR
Note: assay procedure not described here.

5-hydroxytryptamine receptor 2B, sequence (P41595 whole entry): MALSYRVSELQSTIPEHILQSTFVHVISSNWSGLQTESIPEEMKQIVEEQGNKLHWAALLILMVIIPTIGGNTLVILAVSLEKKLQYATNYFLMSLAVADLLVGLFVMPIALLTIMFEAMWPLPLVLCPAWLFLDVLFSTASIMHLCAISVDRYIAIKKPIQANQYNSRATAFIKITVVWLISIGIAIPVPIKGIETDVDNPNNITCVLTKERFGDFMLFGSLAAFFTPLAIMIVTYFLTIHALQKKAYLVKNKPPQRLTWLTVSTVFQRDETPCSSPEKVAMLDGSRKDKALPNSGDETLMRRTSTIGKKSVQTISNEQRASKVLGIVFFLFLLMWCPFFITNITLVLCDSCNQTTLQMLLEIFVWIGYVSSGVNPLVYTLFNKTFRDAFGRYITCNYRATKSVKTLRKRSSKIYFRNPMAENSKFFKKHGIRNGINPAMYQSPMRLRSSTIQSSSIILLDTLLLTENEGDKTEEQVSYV
Motilin receptor, sequence (O43193 whole entry): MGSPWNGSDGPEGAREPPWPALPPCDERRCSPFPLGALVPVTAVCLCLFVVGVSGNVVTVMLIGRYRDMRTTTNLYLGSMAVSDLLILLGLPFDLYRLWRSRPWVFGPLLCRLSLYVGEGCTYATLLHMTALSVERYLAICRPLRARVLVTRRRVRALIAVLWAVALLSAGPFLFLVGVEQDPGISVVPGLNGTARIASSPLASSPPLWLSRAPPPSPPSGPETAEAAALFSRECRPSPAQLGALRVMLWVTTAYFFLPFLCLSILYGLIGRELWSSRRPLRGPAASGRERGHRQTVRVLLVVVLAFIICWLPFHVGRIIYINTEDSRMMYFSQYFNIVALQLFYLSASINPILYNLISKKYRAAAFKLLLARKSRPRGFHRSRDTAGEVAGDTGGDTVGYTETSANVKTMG
Voltage-gated inwardly rectifying potassium channel KCNH2, sequence (Q12809 whole entry): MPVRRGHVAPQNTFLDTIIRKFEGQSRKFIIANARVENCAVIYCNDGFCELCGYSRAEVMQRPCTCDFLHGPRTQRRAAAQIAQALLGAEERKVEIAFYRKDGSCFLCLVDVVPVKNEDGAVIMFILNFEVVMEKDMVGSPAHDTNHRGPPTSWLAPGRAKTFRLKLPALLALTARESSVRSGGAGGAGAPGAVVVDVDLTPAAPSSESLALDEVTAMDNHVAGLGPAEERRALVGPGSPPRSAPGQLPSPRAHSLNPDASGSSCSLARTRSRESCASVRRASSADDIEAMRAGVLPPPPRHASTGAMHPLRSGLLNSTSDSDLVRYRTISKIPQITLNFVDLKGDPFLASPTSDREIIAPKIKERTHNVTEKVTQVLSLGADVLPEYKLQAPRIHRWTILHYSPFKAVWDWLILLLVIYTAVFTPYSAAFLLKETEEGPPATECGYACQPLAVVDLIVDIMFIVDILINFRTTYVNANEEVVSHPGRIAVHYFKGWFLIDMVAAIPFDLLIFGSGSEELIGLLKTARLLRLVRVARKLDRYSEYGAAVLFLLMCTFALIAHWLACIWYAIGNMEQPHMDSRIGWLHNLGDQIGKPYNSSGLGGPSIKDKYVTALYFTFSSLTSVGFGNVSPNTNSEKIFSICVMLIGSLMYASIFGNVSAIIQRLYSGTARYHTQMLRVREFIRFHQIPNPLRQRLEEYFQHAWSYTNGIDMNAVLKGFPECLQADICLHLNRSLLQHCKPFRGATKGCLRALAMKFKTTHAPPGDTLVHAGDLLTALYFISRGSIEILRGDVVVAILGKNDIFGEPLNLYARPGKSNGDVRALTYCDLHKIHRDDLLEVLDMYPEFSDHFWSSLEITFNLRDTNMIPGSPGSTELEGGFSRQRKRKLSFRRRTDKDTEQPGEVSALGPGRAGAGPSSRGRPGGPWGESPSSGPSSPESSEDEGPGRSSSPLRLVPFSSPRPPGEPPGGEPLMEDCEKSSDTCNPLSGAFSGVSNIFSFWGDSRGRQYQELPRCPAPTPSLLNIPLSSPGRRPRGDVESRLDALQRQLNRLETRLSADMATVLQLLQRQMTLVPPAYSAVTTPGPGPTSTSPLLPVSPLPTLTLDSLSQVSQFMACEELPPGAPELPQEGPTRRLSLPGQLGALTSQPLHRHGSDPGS
Neuronal acetylcholine receptor subunit alpha-4, sequence (P43681 whole entry): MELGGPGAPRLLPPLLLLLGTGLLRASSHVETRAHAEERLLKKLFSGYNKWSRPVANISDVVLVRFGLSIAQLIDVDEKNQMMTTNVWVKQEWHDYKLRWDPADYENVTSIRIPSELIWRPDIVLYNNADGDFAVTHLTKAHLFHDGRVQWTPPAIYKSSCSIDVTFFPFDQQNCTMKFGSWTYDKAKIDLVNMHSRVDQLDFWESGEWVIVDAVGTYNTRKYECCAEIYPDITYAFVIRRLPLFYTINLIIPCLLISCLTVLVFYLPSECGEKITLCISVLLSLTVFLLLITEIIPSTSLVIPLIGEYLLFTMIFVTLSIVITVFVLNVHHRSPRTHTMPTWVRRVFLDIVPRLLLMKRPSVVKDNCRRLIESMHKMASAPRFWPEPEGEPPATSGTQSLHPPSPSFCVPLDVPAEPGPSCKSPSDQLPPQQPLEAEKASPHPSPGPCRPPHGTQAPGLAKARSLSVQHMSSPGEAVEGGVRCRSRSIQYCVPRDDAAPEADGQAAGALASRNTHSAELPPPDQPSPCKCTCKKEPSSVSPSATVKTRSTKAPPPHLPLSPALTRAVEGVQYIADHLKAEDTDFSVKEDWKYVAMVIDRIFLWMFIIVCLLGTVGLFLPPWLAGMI
Delta-type opioid receptor, sequence (P41143 whole entry): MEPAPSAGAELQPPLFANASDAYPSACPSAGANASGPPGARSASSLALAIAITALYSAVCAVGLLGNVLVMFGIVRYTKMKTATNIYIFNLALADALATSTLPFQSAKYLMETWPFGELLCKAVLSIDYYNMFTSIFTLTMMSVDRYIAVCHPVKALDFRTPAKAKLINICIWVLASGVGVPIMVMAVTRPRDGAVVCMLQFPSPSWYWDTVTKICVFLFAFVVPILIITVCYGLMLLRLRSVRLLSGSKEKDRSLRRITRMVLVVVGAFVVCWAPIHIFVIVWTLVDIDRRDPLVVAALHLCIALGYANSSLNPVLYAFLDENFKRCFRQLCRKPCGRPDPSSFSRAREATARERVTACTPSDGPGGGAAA

## CN1CCCC(n2nc(Cc3ccc(Cl)cc3)c3ccccc3c2=O)CC1 (stereo not drawn) [AZELASTINE]
Adenosine receptor A3
  AC50: > 30 µM
Motilin receptor
  AC50: > 30 µM
[1]
  AC50: > 30 µM
[2]
  AC50: > 30 µM
Adenosine receptor A1
  AC50: > 30 µM
[3]
  AC50: 17 µM
[4]
  AC50: 2.4 µM
[5]
  AC50: > 30 µM

## O=C1c2c(O)c(=O)ccn2N([C@@H]2c3ccccc3SCc3c2ccc(F)c3F)[C@@H]2COCCN12 [BALOXAVIR]
[6]
  AC50: > 30 µM

## COc1cc(Nc2c(C#N)cnc3cc(OCCCN4CCN(C)CC4)c(OC)cc23)c(Cl)cc1Cl [BOSUTINIB]
Adenosine receptor A3
  AC50: 10.3 µM
Motilin receptor
  AC50: > 10 µM
[1]
  AC50: 32.5 µM
[2]
  AC50: > 30 µM
Adenosine receptor A1
  AC50: > 30 µM
[3]
  AC50: > 10 µM
[4]
  AC50: > 10 µM
[5]
  AC50: > 10 µM

## CCO/N=C(\C(=O)N[C@@H]1C(=O)N2C(C(=O)[O-])=C(Sc3nc(-c4cc[n+](C)cc4)cs3)CS[C@H]12)c1nsc(N)n1 [CEFTAROLINE]
[6]
  AC50: 26 µM

## Cc1cc(O)cc(C)c1Cl [CHLOROXYLENOL]
[6]
  AC50: > 30 µM

## CN(C)CCCN1c2ccccc2CCc2ccc(Cl)cc21 [CLOMIPRAMINE]
[3]
  AC50: > 10 µM
[4]
  AC50: > 30 µM
[5]
  AC50: > 30 µM
[7]
  AC50: 5.6 µM
[8]
  AC50: > 10 µM

## CC(=O)OCC(=O)[C@@]1(O)CC[C@H]2[C@@H]3CCC4=CC(=O)CC[C@]4(C)[C@H]3C(=O)C[C@@]21C [CORTISONE ACETATE]
[4]
  AC50: > 30 µM
[5]
  AC50: > 30 µM
[7]
  AC50: > 30 µM

## C[N+](C)(C)CCCCCCCCCC[N+](C)(C)C [DECAMETHONIUM]
[6]
  AC50: > 30 µM

## O=C1c2ccccc2C(=O)C1C(=O)C(c1ccccc1)c1ccccc1 [DIPHENADIONE]
[6]
  AC50: > 30 µM

## COc1cc2c(cc1OC)C(=O)C(CC1CCN(Cc3ccccc3)CC1)C2 (stereo not drawn) [DONEPEZIL]
Adenosine receptor A3
  AC50: > 30 µM
Motilin receptor
  AC50: > 10 µM
[1]
  AC50: > 30 µM
[2]
  AC50: 15.6 µM
Adenosine receptor A1
  AC50: > 30 µM
[3]
  AC50: > 10 µM
[4]
  AC50: > 30 µM
[5]
  AC50: > 30 µM

## C#C[C@]1(O)CC[C@H]2[C@@H]3CCc4cc(O)ccc4[C@H]3CC[C@@]21C [ETHINYL ESTRADIOL]
Adenosine receptor A3
  AC50: 13.5 µM
Motilin receptor
  AC50: > 10 µM
[6]
  AC50: > 30 µM
[1]
  AC50: > 30 µM
[2]
  AC50: > 30 µM
Adenosine receptor A1
  AC50: > 30 µM
[4]
  AC50: > 30 µM
[5]
  AC50: > 30 µM
[7]
  AC50: 18 µM
[8]
  AC50: > 10 µM

## CCOC(=O)c1ccc(O)cc1 [ETHYLPARABEN]
[6]
  AC50: > 30 µM

## O=C1[C@H](CC[C@H](O)c2ccc(F)cc2)[C@@H](c2ccc(O)cc2)N1c1ccc(F)cc1 [EZETIMIBE]
[6]
  AC50: 16 µM

## NC(N)=Nc1nc(CSCCC(N)=NS(N)(=O)=O)cs1 [FAMOTIDINE]
Adenosine receptor A3
  AC50: > 30 µM
Motilin receptor
  AC50: > 10 µM
[1]
  AC50: > 30 µM
[2]
  AC50: > 30 µM
Adenosine receptor A1
  AC50: > 30 µM
[4]
  AC50: > 10 µM
[5]
  AC50: > 10 µM
[7]
  AC50: > 10 µM
[8]
  AC50: > 10 µM

## O=C(COc1ccc(Cl)cc1)N1CCN(Cc2ccc3c(c2)OCO3)CC1 [FIPEXIDE]
[6]
  AC50: 12 µM

## Cc1c(-c2ccccc2)oc2c(C(=O)OCCN3CCCCC3)cccc2c1=O [FLAVOXATE]
[6]
  AC50: 3.8 µM

## CCC(=O)c1c(O)cc(O)cc1O [FLOPROPIONE]
[6]
  AC50: > 30 µM

## CC1(C)O[C@@H]2C[C@H]3[C@@H]4C[C@H](F)C5=CC(=O)CC[C@]5(C)[C@H]4[C@@H](O)C[C@]3(C)[C@]2(C(=O)CO)O1 [FLURANDRENOLIDE]
[6]
  AC50: > 30 µM

## C#C[C@]1(O)CC[C@H]2[C@@H]3CCC4=CC(=O)CC[C@@H]4[C@H]3CC[C@@]21CC [LEVONORGESTREL]
[6]
  AC50: > 30 µM

## CN1CCCC(CN2c3ccccc3Sc3ccccc32)C1 (stereo not drawn) [MEPAZINE]
[6]
  AC50: 3.77 µM

## Sc1ncnc2nc[nH]c12 [MERCAPTOPURINE ANHYDROUS]
[6]
  AC50: > 30 µM

## C[N+]1(C)[C@@H]2C[C@@H](OC(=O)[C@H](CO)c3ccccc3)C[C@H]1[C@@H]1O[C@@H]12 [METHSCOPOLAMINE]
[6]
  AC50: > 30 µM

## CC(=O)Oc1c(C)cc(OCC(O)CNC(C)C)c(C)c1C (stereo not drawn) [METIPRANOLOL]
[6]
  AC50: > 30 µM

## O=C1CC[C@@]2(O)[C@H]3Cc4ccc(O)c5c4[C@@]2(CCN3CC2CC2)[C@H]1O5 [NALTREXONE]
[6]
  AC50: > 30 µM

## CCc1nn(CCCN2CCN(c3cccc(Cl)c3)CC2)c(=O)n1CCOc1ccccc1 [NEFAZODONE]
Adenosine receptor A3
  AC50: 11.9 µM
Motilin receptor
  AC50: > 10 µM
[6]
  AC50: 0.89 µM
[1]
  AC50: 19.2 µM
[2]
  AC50: > 30 µM
Adenosine receptor A1
  AC50: > 30 µM
[4]
  AC50: > 10 µM
[5]
  AC50: > 10 µM
[7]
  AC50: 1.1 µM

## CC(N/C(=N\C#N)Nc1ccncc1)C(C)(C)C (stereo not drawn) [PINACIDIL ANHYDROUS]
[6]
  AC50: > 30 µM

## CCc1ccc(CCOc2ccc(CC3SC(=O)NC3=O)cc2)nc1 (stereo not drawn) [PIOGLITAZONE]
Adenosine receptor A3
  AC50: > 30 µM
Motilin receptor
  AC50: > 10 µM
[6]
  AC50: > 30 µM
[1]
  AC50: > 30 µM
[2]
  AC50: > 30 µM
Adenosine receptor A1
  AC50: > 30 µM
[4]
  AC50: > 10 µM
[5]
  AC50: > 10 µM
[7]
  AC50: > 10 µM
[8]
  AC50: > 10 µM

## CC(O)CO (stereo not drawn) [PROPYLENE GLYCOL]
[6]
  AC50: > 30 µM

## O=C(NC[C@H]1CN(c2ccc(N3CCOCC3=O)cc2)C(=O)O1)c1ccc(Cl)s1 [RIVAROXABAN]
Adenosine receptor A3
  AC50: > 30 µM
[4]
  AC50: > 30 µM
[5]
  AC50: > 30 µM
[7]
  AC50: > 30 µM
[8]
  AC50: > 30 µM

## CC(C)OC(=O)[C@H](C)N[P@](=O)(OC[C@H]1O[C@@H](n2ccc(=O)[nH]c2=O)[C@](C)(F)[C@@H]1O)Oc1ccccc1 [SOFOSBUVIR]
[6]
  AC50: > 30 µM

## Cc1ccc(O)c2ncccc12 [TILIQUINOL]
[6]
  AC50: > 30 µM

## CC(=O)OC[C@H]1O[C@@H](n2ccc(=O)[nH]c2=O)[C@H](OC(C)=O)[C@@H]1OC(C)=O [URIDINE TRIACETATE]
[6]
  AC50: > 30 µM

## CCOC(=O)N[C@@H]1CC[C@@H]2[C@@H](C1)C[C@H]1C(=O)O[C@H](C)[C@H]1[C@H]2/C=C/c1ccc(-c2cccc(F)c2)cn1 [VORAPAXAR]
[6]
  AC50: 3.9 µM
